Measurements as given in patent US11174250B2, “Substituted carboxamides as inhibitors of WDR5 protein-protein binding” (PROPELLON THERAPEUTICS INC., priority 2016, dated 2021).
Where two headings read alike, the source gives them in different places.

Experiments:
MV4-11 cells = experiment: Cell proliferation assay (ATPlite); format: cell-based; conditions: Homo sapiens, MV4-11, 120 h; MV-411 cells, five days; read-out: In vitro whole cell potency in MV-411 cells, (IC50)
Description: MV4-11 cells were seeded into a 96-well plate at 1,000 cells/well in 150 μl medium (Alpha-MEM containing 10% FBS, 100 μg/ml Normocin, and 50 μg/ml Gentamycin, Invitrogen). A HP D300 digital dispenser was used to dose cells with DMSO or test compounds across a 10-point range of concentrations (high dose of 10 μM), and cultures were grown in a humidified 5% CO2 incubator at 37° C. After five days, plates were removed from incubator and equilibrated to room temperature. An equal volume of ATPlite assay reagent was added to each well, and samples were processed according to manufacturer's instructions (Perkin Elmer). Luminescent signal was measured using an Envision plate reader equipped with a US-Luminescence detector.

WDR5 protein = WDR5 protein (Homo sapiens (Human), UniProt P61964); experiment: Surface Plasmon Resonance (SPR) assay; format: binding; conditions: for residence time: τ=1/koff, read-out: Residence Time (t, min)
MLL1-WRAD2 complex = MLL1-WRAD2 complex (Homo sapiens (Human), UniProt P61964); experiment: MLL1-WRAD2 enzyme assay (in vitro methyl transferase assay); format: biochemical
Description: Reaction was initiated with 1 μM 3H-SAM and incubated for 1 hour at 30° C. Reaction mixture was transferred to P81 filter-paper and washed with PBS before detection.

[1] = SPR, Table 1, read-out: WDR5 binding affinity (KD)
[2] = SPR, Table 2, read-out: WDR5 binding affinity SPR (KD)
[3] = MLL1-WRAD2 assay, read-out: In vitro MLL1 activity (IC50)

SMILES	IC50 (MV4-11 cells)	Kd (WDR5 protein; [1])	Kd (WDR5 protein; [2])	residence time (WDR5 protein; SPR)	IC50 (MLL1-WRAD2 complex; [3])	τ (WDR5 protein; Table 4, effect of Fluoro-substitution)	Kd (WDR5 protein; Table 4, effect of Fluoro-substitution, read-out: KD (SPR))	IC50 (MLL1-WRAD2 complex; Table 4, effect of Fluoro-substitution, read-out: IC50 (MLL1))
CN1CCN(c2ccc(-c3cc(CN(C)C4CCCCC4)ccc3F)cc2NC(=O)c2c[nH]c(=O)cc2C(F)(F)F)CC1 [Example 67, N-(5′-((cyclohexyl(methyl)amino)methyl)-2′-fluoro-4-(4-methylpiperazin-1-yl)-[1,1′-biphenyl]-3-yl)-6-oxo-4-(trifluoromethyl)-1,6-dihydropyridine-3-carboxamide]	292 nM	3.2 nM	3.2 nM	8.8 min	1150 nM			
C[C@@H]1CN(c2ccc(-c3cc(OCC4CC4)ncc3F)cc2NC(=O)c2c[nH]c(=O)cc2C(F)(F)F)C[C@H](C)N1C [Example 50, N-(5-(2-(cyclopropylmethoxy)-5-fluoropyridin-4-yl)-2-((3S,5R)-3,4,5-trimethylpiperazin-1-yl)phenyl)-6-oxo-4-(trifluoromethyl)-1,6-dihydropyridine-3-carboxamide]	943 nM	4 nM	4 nM	12.6 min	1790 nM			
CN1CCN(c2ccc(-c3ccc(OCC4CC4)nc3F)cc2NC(=O)c2c[nH]c(=O)cc2C(F)(F)F)CC1 [Example 16, N-(5-(6-(cyclopropylmethoxy)-2-fluoropyridin-3-yl)-2-(4-methylpiperazin-1-yl)phenyl)-6-oxo-4-(trifluoromethyl)-1,6-dihydropyridine-3-carboxamide]	5970 nM	10 nM	10 nM	5.25 min	1470 nM			
CN1CCN(c2ccc(-c3cc(CN4CC[C@@H](S(C)(=O)=O)C4)ccc3F)cc2NC(=O)c2c[nH]c(=O)cc2C(F)(F)F)CC1 [Example 75, (R)—N-(2′-fluoro-4-(4-methylpiperazin-1-yl)-5′-((3-(methylsulfonyl)pyrrolidin-1-yl)methyl)-[1,1′-biphenyl]-3-yl)-6-oxo-4-(trifluoromethyl)-1,6-dihydropyridine-3-carboxamide]	1220 nM	5.9 nM	5.9 nM	5.13 min	2090 nM			
C[C@@H]1CN(c2ccc(-c3cc(CNC4CCCCC4)ccc3F)cc2NC(=O)c2c[nH]c(=O)cc2C(F)(F)F)C[C@H](C)N1C [Example 45, N-(5′-((cyclohexylamino)methyl)-2′-fluoro-4-((3S,5R)-3,4,5-trimethylpiperazin-1-yl)-[1,1′-biphenyl]-3-yl)-6-oxo-4-(trifluoromethyl)-1,6-dihydropyridine-3-carboxamide]	74 nM	2 nM	2 nM	31.9 min	514 nM			
CN1CCN(c2ccc(-c3cc(CN4CCN(Cc5ccc(F)cc5)CC4)ccc3F)cc2NC(=O)c2c[nH]c(=O)cc2C(F)(F)F)CC1 [Example 68, N-(2′-fluoro-5′-((4-(4-fluorobenzyl)piperazin-1-yl)methyl)-4-(4-methylpiperazin-1-yl)-[,1′-biphenyl]-3-yl)-6-oxo-4-(trifluoromethyl)-1,6-dihydropyridine-3-carboxamide]	1790 nM	7.7 nM	7.7 nM	3.81 min	1890 nM			
CC1CN(c2ccc(-c3cc(CN4CCOCC4)ccc3F)cc2NC(=O)c2c[nH]c(=O)cc2C(F)(F)F)CCN1C (stereo not shown) [Example 26, N-(4-(3,4-dimethylpiperazin-1-yl)-2′-fluoro-5′-(morpholinomethyl)-[1,1′-biphenyl]-3-yl)-6-hydroxy-4-(trifluoromethyl)nicotinamide]	491 nM	9 nM	9 nM	3.07 min				
C[C@@H]1CN(c2ccc(-c3cc(CN4CCOCC4)cnc3F)cc2NC(=O)c2c[nH]c(=O)cc2C(F)(F)F)C[C@H](C)N1C [Example 60, N-(5-(2-fluoro-5-(morpholinomethyl)pyridin-3-yl)-2-((3S,5R)-3,4,5-trimethylpiperazin-1-yl)phenyl)-6-oxo-4-(trifluoromethyl)-1,6-dihydropyridine-3-carboxamide]		7 nM	7 nM	9.5 min	1410 nM			
CN1CCN(c2ccc(-c3cc(CN(C)C4COC4)ccc3F)cc2NC(=O)c2c[nH]c(=O)cc2C(F)(F)F)CC1 [Example 43, N-(2′-fluoro-5′-((methyl(oxetan-3-yl)amino)methyl)-4-(4-methylpiperazin-1-yl)-[1,1′-biphenyl]-3-yl)-6-oxo-4-(trifluoromethyl)-1,6-dihydropyridine-3-carboxamide]		7 nM	7 nM	3.64 min	3250 nM			
CN1CCN(c2ncc(-c3cc(CN4CCOCC4)ccc3F)cc2NC(=O)c2c[nH]c(=O)cc2C(F)(F)F)CC1 [Example 84, N-(5-(2-fluoro-5-(morpholinomethyl)phenyl)-2-(4-methylpiperazin-1-yl)pyridin-3-yl)-6-oxo-4-(trifluoromethyl)-1,6-dihydropyridine-3-carboxamide]		22 nM	22 nM		> 30000 nM			
CN1CCN(c2ccc(-c3cc(CN4CCOCC4)ccc3F)cc2NC(=O)c2cn(C)c(=O)cc2C(F)(F)F)CC1 [Example 13, N-(2′-fluoro-4-(4-methylpiperazin-1-yl)-5′-(morpholinomethyl)-[1,1′-biphenyl]-3-yl)-1-methyl-6-oxo-4-(trifluoromethyl)-1,6-dihydropyridine-3-carboxamide]		15 nM	15 nM	0.3 min	8980 nM			
CNC(=O)c1ccc(F)c(-c2ccc(N3C[C@@H](C)N(C)[C@@H](C)C3)c(NC(=O)c3c[nH]c(=O)cc3C(F)(F)F)c2)c1 [Example 90, N-(2′-fluoro-5′-(methylcarbamoyl)-4-((3S,5R)-3,4,5-trimethylpiperazin-1-yl)-[1,1′-biphenyl]-3-yl)-6-oxo-4-(trifluoromethyl)-1,6-dihydropyridine-3-carboxamide]		6.5 nM	6.4 nM	3 min	1090 nM			
CCN1CCN(c2ccc(-c3cc(CN4CCOCC4)ccc3F)cc2NC(=O)c2c[nH]c(=O)cc2C(F)(F)F)CC1 [Example 62, N-(4-(4-ethylpiperazin-1-yl)-2′-fluoro-5′-(morpholinomethyl)-[1,1′-biphenyl]-3-yl)-6-oxo-4-(trifluoromethyl)-1,6-dihydropyridine-3-carboxamide]		> 200 nM	> 200 nM		13500 nM			
Cc1cc(=O)[nH]cc1C(=O)Nc1cc(-c2cc(CN3CCOCC3)ccc2F)ccc1N1CCN(C)CC1 [Example 29, N-(2′-fluoro-4-(4-methylpiperazin-1-yl)-5′-(morpholinomethyl)-[1,1′-biphenyl]-3-yl)-4-methyl-6-oxo-1,6-dihydropyridine-3-carboxamide]		262 nM	262 nM	0.42 min	26700 nM			
C[C@H]1CN(c2ccc(-c3ncccc3F)cc2NC(=O)c2c[nH]c(=O)cc2C(F)(F)F)CCN1C [Example 96, (S)—N-(2-(3,4-dimethylpiperazin-1-yl)-5-(3-fluoropyridin-2-yl)phenyl)-6-oxo-4-(trifluoromethyl)-1,6-dihydropyridine-3-carboxamide]		2.6 nM	3 nM		2530 nM			
CN1CCN(c2ccc(-c3cc(CN4CCOCC4)cnc3F)cc2NC(=O)c2c[nH]c(=O)cc2C(F)(F)F)CC1 [Example 61, N-(5-(2-fluoro-5-(morpholinomethyl)pyridin-3-yl)-2-(4-methylpiperazin-1-yl)phenyl)-6-oxo-4-(trifluoromethyl)-1,6-dihydropyridine-3-carboxamide]		7 nM	7 nM	2.29 min	4490 nM			
C[C@@H]1CN(c2ccc(-c3c(F)ccc(CNC4CCCCC4)c3F)cc2NC(=O)c2c[nH]c(=O)cc2C(F)(F)F)C[C@H](C)N1C [Example 114, N-(3′-((cyclohexylamino)methyl)-2′,6′-difluoro-4-((3S,5R)-3,4,5-trimethylpiperazin-1-yl)-[1,1′-biphenyl]-3-yl)-6-oxo-4-(trifluoromethyl)-1,6-dihydropyridine-3-carboxamide]		13 nM	13 nM	4.3 min	11100 nM			
CN1CCN(c2ccc(-c3cc(CN4CCOCC4)ccc3F)cc2NC(=O)c2ccc(O)cc2C(F)(F)F)CC1 [Example 44, N-(2′-fluoro-4-(4-methylpiperazin-1-yl)-5′-(morpholinomethyl)-[1,1′-biphenyl]-3-yl)-4-hydroxy-2-(trifluoromethyl)benzamide]		69 nM	69 nM	0.23 min	> 30000 nM			
CN1CCN(c2ccc(-c3cc(CN4CCC(F)CC4)ccc3F)cc2NC(=O)c2c[nH]c(=O)cc2C(F)(F)F)CC1 [drawing 287]						5.44 min	11 nM	592 nM
Cc1cc(C(=O)Nc2cc(-c3cc(CN4CCOCC4)ccc3F)ccc2N2CCN(C)CC2)ccc1F [Example 36, 4-fluoro-N-(2′-fluoro-4-(4-methylpiperazin-1-yl)-5′-(morpholinomethyl)-[1,1′-biphenyl]-3-yl)-3-methylbenzamide]		4 nM	4 nM	0.12 min	> 30000 nM			
